# Assay results as given in patent US20140135310A1, “SULPHONAMIDE DERIVATIVES OF ALICYCLIC AMINES FOR THE TREATMENT OF CENTRAL NERVOUS SYSTEM DISEASES” (Adamed Sp. z o.o., priority 2011, published 2014).
# Legend:
# [1] = biological target: T1, serotonin transporter (SERT) (Homo sapiens, UniProt P31645); assay: Radioligand binding assay, serotonin transporter (SERT); conditions: binding assay, test compound 1×10^−6 M
# T1 construct: expressed in transfected cells; host or cells: CHO cells
# How it was run: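 Radioligand competition binding with scintillation detection; specific binding is total minus binding under excess unlabelled ligand. Reported as % of control specific binding or % inhibition; IC50 from Hill-equation non-linear regression of competition curves, and Ki via Cheng-Prusoff using radioligand concentration and Scatchard-derived KD.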
# [2] = biological target: T2, 5-HT6 receptor (Homo sapiens, UniProt P50406); assay: Radioligand binding assay, serotoninergic 5-HT6 receptors; conditions: binding assay result in %, Table 5a;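 note: test compound at 1 µM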
# T2 construct: purchased PerkinElmer
# T2 sequence (P50406 whole entry): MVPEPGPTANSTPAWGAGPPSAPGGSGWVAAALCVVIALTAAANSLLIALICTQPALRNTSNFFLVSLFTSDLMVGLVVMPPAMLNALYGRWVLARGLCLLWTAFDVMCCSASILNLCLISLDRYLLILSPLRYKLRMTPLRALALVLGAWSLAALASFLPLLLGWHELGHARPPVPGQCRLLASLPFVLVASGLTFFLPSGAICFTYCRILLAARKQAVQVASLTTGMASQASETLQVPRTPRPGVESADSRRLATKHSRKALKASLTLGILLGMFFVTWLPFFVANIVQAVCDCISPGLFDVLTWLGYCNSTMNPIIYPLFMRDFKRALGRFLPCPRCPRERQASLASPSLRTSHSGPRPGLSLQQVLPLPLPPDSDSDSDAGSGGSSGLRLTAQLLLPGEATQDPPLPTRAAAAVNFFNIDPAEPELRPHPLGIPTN
# How it was run: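 Values are Ki from Cheng–Prusoff, taking IC50 from Hill nonlinear regression of competition curves and KD from a Scatchard plot. Specific binding was total minus binding with excess unlabelled ligand. Radioligand displacement was detected by scintillation counting, and data were also reported as percent of control specific binding.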
# [3] = biological target: dopaminergic receptors D2 (Homo sapiens, UniProt P14416); assay: Radioligand binding assay, dopaminergic D2 receptors; conditions: binding assay, test compound 1×10^−6 M
# dopaminergic receptors D2, sequence (P14416 whole entry): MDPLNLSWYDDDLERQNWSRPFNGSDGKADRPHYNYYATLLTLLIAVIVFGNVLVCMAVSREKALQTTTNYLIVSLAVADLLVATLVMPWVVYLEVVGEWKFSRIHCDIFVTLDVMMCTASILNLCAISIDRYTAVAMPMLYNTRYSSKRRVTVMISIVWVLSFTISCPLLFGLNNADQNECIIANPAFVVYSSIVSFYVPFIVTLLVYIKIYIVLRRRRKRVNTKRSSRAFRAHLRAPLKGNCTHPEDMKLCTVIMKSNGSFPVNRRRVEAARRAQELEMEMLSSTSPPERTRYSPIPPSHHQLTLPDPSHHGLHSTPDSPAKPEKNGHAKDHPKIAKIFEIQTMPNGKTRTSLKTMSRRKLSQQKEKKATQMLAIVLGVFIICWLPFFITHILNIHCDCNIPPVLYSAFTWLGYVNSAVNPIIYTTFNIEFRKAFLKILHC
# How it was run: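 Total binding is counted by scintillation and non-specific binding subtracted using an excess of unlabelled ligand. IC50 comes from a Hill-equation fit with slope factor; Ki follows Cheng–Prusoff.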
# [4] = biological target: T3, 5-HT2A receptor (Homo sapiens, UniProt P28223); assay: Radioligand binding assay, serotoninergic 5-HT2A receptors; conditions: binding assay result in %, Table 5a
# T3 construct: purchased PerkinElmer
# T3 sequence (P28223 whole entry): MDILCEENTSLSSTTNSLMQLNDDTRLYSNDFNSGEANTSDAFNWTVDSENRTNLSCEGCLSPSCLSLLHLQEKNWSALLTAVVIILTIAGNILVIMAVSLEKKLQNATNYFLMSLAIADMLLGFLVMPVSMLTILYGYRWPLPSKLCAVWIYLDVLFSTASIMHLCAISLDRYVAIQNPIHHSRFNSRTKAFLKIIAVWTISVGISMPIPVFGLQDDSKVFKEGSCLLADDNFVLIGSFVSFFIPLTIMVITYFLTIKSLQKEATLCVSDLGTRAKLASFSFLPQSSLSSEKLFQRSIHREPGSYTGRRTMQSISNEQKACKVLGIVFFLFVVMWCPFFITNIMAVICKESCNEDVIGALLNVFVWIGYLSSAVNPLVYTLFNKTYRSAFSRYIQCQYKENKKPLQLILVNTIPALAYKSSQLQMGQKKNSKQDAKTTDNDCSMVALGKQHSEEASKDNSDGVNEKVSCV
# How it was run: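 Radioligand competition binding with scintillation counting; nonspecific binding defined by excess unlabelled ligand. Data as percent inhibition of control specific binding. IC50 by Hill-equation fit of competition curves; Ki by Cheng-Prusoff, with radioligand Kd from Scatchard plot.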
# [5] = biological target: dopaminergic receptors D3 (Homo sapiens, UniProt P35462); assay: Radioligand binding assay, dopaminergic D3 receptors; conditions: test compound 1×10^−6 M
# dopaminergic receptors D3, sequence (P35462 whole entry): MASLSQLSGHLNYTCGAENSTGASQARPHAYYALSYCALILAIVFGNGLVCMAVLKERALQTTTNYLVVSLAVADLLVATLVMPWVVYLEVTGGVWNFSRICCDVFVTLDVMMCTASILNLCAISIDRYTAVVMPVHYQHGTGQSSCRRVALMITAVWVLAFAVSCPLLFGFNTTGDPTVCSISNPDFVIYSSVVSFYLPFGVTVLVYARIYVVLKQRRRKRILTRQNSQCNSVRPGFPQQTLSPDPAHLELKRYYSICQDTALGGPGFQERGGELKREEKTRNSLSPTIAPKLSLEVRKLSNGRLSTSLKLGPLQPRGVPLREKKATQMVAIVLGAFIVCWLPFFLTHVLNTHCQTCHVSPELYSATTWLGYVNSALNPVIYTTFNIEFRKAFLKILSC
# How it was run: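 Competition radioligand binding at human D2, D3 and D4.4 receptors, detected by scintillation counting; nonspecific binding defined with excess unlabelled ligand. Results as percent inhibition of control specific binding; IC50 by Hill-equation nonlinear regression; Ki via Cheng-Prusoff, with radioligand KD from Scatchard plot.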
# [6] = tested on: α1 adrenergic receptors (rat cerebral cortex); assay: Radioligand binding assay, adrenergic α1 receptors; conditions: test compound 1×10^−6 M
# How it was run: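 Values derive from radioligand displacement, with non-specific binding defined by excess cold ligand and detection by scintillation. Hill-fit IC50s were converted to Ki via Cheng-Prusoff using Scatchard-derived Kd; percent inhibition of control specific binding also reported.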
# [7] = biological target: T4, 5-HT7 receptor (Homo sapiens, UniProt P34969); assay: Radioligand binding assay, serotoninergic 5-HT7 receptors; conditions: binding assay result in %, Table 5a;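 note: test compound at 1 µM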
# T4 construct: purchased PerkinElmer
# T4 sequence (P34969 whole entry): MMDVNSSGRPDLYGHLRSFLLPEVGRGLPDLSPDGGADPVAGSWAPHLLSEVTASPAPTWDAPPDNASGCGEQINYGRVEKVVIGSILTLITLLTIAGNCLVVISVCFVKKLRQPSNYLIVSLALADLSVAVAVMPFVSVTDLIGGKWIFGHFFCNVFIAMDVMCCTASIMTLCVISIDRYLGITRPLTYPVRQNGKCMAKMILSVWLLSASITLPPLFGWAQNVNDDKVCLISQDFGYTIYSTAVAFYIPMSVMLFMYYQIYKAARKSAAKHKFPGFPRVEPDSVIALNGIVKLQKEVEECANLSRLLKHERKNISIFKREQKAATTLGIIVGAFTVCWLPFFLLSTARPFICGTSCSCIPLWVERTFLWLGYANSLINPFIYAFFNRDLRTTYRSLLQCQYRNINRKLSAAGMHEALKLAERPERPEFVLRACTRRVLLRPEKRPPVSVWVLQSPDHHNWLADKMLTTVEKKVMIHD
# How it was run: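 Competition binding at human 5-HT7 receptors with a radioligand, detected by scintillation counting; non-specific binding was defined with excess unlabelled ligand. IC50 came from Hill-equation fits of competition curves, and Ki from Cheng–Prusoff using radioligand concentration and Scatchard-derived KD.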
# [8] = biological target: T5, 5-HT1A receptor (rat hippocampus) (Rattus norvegicus, UniProt P19327); assay: Radioligand binding assay, serotoninergic 5-HT1A receptors; conditions: binding assay result in %, Table 5a;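 note: test compound at 1 µM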
# T5 construct: hippocampus; from tissue; host or cells: rat hippocampus
# T5 sequence (P19327 1-422): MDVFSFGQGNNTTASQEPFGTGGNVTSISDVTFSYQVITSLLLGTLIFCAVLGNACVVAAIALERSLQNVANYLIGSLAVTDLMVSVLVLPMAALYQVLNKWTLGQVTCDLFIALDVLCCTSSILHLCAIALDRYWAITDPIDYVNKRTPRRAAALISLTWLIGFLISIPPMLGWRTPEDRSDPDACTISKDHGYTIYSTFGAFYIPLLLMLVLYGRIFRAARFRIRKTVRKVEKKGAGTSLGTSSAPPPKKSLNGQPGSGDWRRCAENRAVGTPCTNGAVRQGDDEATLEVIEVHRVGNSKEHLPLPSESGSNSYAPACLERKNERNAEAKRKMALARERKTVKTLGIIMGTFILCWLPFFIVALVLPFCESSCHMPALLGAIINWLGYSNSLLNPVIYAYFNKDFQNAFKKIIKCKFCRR
# T1 sequence (P31645 whole entry): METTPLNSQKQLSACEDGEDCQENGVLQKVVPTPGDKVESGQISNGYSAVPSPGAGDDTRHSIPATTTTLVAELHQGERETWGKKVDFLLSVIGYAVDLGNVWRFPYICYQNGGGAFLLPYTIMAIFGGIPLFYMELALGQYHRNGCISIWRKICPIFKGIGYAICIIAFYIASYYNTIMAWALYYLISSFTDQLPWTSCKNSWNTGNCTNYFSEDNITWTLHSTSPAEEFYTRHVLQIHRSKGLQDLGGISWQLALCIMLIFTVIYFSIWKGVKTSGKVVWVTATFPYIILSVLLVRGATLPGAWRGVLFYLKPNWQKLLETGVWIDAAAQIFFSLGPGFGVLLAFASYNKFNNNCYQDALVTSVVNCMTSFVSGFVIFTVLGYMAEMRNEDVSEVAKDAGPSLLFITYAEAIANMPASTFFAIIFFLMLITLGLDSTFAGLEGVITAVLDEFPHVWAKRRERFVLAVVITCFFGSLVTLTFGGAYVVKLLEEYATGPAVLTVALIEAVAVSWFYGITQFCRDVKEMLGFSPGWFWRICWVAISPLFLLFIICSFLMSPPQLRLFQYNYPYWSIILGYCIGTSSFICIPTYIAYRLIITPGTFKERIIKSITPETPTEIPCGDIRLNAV
Structure (SMILES),inhibition at 1 µM [1] [%],inhibition at 1 µM [2] [%],inhibition at 1 µM [3] [%],inhibition at 1 µM [4] [%],inhibition at 1 µM [5] [%],α1 [%] [6] [%],inhibition at 1 µM [7] [%],inhibition at 1 µM [8] [%],SERT [%] [1] [%],5-HT6 [%] [2] [%],D2 [%] [3] [%],5-HT2A [%] [4] [%],D3 [%] [5] [%],5-HT7 [%] [7] [%],5-HT1A [%] [8] [%]
"O=S(=O)(NC1CCN(CCCc2noc3cc(F)ccc23)C1)c1ccc(-c2ccccc2)cc1 (centres unmarked) [Compound 195, N-[1-[3-(6-Fluoro-1,2-benzoxazol-3-yl)propyl]pyrrolidin-3-yl]-4-phenyl-benzenesulphonamide]",7,86,93,101,82,79,86,47,,,,,,,
"O=S(=O)(NC1CCN(CCCc2noc3cc(F)ccc23)C1)c1ccc2c(c1)OCC2 (centres unmarked) [Compound 24, N-[1-[3-(6-Fluoro-1,2-benzoxazol-3-yl)propyl]pyrrolidin-3-yl]-2,3-dihydrobenzofuran-6-sulphonamide]",-10,78,94,95,52,101,82,19,,,,,,,
"O=S(=O)(NC1CN(CCOc2cccc3[nH]ccc23)C1)c1ccccc1 [Compound 45, N-[1-[2-(1H-indol-4-yloxy)ethyl]azetidin-3-yl]benzenesulphonamide]",-4,0,53,75,87,72,93,88,,,,,,,
"O=S(=O)(NC1CCN(CCOc2cccc3[nH]ccc23)CC1)c1cccc2ccccc12 [Compound 60, N-[1-[2-(1H-Indol-4-yloxy)ethyl]-4-piperidine]naphthalene-1-sulphonamide]",,,,,,87,,,21,69,41,76,102,96,85
"Cn1ccc2cc(S(=O)(=O)NCC3CCN(CCOc4cccc5ccccc45)C3)ccc21 (centres unmarked) [Compound 274, 1-Methyl-N-[[1-[2-(1-naphthyloxy)ethyl]pyrrolidin-3-yl]methyl]indole-5-sulphonamide]",109,97,62,89,81,41,86,77,,,,,,,
"O=S(=O)(NC1CCN(CCCc2noc3cc(F)ccc23)CC1)c1ccc(-c2ccccc2)cc1 [Compound 327, N-[1-[3-(6-Fluoro-1,2-benzoxazol-3-yl)propyl]-4-piperidyl]-4-phenylbenzenesulphonamide]",33,68,79,94,56,81,86,20,,,,,,,
"Cc1c(S(=O)(=O)NCC2CCN(CCOc3cccc4ccccc34)C2)sc2ccc(Cl)cc12 (centres unmarked) [Compound 272, 5-Chloro-3-methyl-N-[[1-[2-(1-naphthyloxy)ethyl]pyrrolidin-3-yl]methyl]benzothiophene-2-sulphonamide]",20,67,40,82,88,−7,88,63,,,,,,,
"O=S(=O)(NC1CCN(CCOc2nsc3ccccc23)CC1)c1ccc2ccccc2c1 [Compound 40, N-[1-[2-(1,2-Benzothiazol-3-yloxy)ethyl]-4-piperidine]naphthalene-2-sulphonamide]",,,,,,12,,,−5,72,49,102,39,85,68
"Cn1ccc2cc(S(=O)(=O)NCC3CN(CCOc4cccc5ccccc45)C3)ccc21 [Compound 169, 1-Methyl-N-[[1-[2-(1-naphthyloxy)ethyl]azetidin-3-yl]methyl]indole-5-sulphonamide]",75,100,84,69,100,74,93,84,,,,,,,
"O=S(=O)(NC1CCN(CCCc2noc3cc(F)ccc23)C1)c1ccc2c(c1)OCO2 (centres unmarked) [Compound 194, N-[1-[3-(6-Fluoro-1,2-benzoxazol-3-yl)propyl]pyrrolidin-3-yl]-1,3-benzo-dioxole-5-sulphonamide]",1,53,19,29,48,96,82,63,,,,,,,
